For the experiment, the system named is DGAT. Put plainly: DGAT Phospholipid FlashPlate Assay. The experiment is classed as biochemical. Conditions: DGAT pellet, DAG-coated PL-FlashPlate, 14C-Pal-CoA, 37° C. for 1 hour; read-out: Activity in DGAT Phospholipid FlashPlate Assay (A = IC50 < 0.10 μM, B = IC50 ≧ 0.10 μM). The protocol:
Materials for the assay were: PL-FlashPlate: Phospholipid FlashPlates from PerkinElmer, catalog number SMP108; DAG (1,2-Dioleoyl-sn-glycerol) 10 mM suspended in water containing 0.1% Triton X-100; ^14C-Pal-CoA (palmitoyl coenzyme A, [palmitoyl-1-^14C]) from PerkinElmer, catalog number NEC-555 with a specific activity of 55 mCi/mmol; and DGAT pellet, with a protein concentration of 9.85 mg/ml.
Aqueous buffers were prepared or purchased as follows: The coating buffer (CB) was purchased from PerkinElmer, catalog number SMP900A; the reaction buffer (RB) was 50 mM Tris-HCl, pH 7.5, 100 mM NaCl, 0.01 % BSA in water; the washing buffer (WB) is 50 mM Tris-HCl, pH 7.5, 100 mM NaCl, 0.05 % deoxycholic acid sodium salt in water; the dilution buffer (DB) was 50 mM Tris-HCl, pH 7.5, 100 mM NaCl, 1 mM EDTA, 0.2% Triton X-100 in water.
1,2-Dioleoyl-sn-glycerol (DAG, 10 mmoles) was diluted to 500 μM with coating buffer (CB). The diluted DAG solution was then added to 384-well PL-FlashPlates at 60 μl per well, and incubated at room temperature for 2 days. The coated plates were then washed twice with washing buffer (WB) before use. Test compounds were serial diluted to 2000, 666.7, 222.2, 74.1, 24.7, 8.2, 2.7 and 0.9 μM in 100% DMSO. Diluted compound were further diluted 10 fold with reaction buffer (RB). ^14C-Pal-CoA was diluted to 8.3 μM with RB. The DGAT pellet was diluted to 0.13 mg protein/ml with dilution buffer (DB) immediately before it was added to the PL-FlashPlates to start the reaction. 20 μl of the RB-diluted compounds (or 10% DMSO in RB for Total and Blank), 15 μl of RB diluted 14C-Pal-CoA and 15 μl of DB diluted DGAT pellet (DB without DGAT for Blanks) were transferred to each well of the PL-FlashPlates. The reaction mixtures were incubated at 37° C. for 1 hour. The reactions were stopped by washing 3 times with WB. Plates were sealed with Top-seal and read on a Topcount instrument.
Calculation of IC50: The IC50 values for each compound were generated using an Excel template. The Topcount rpm readings of Total and Blank were used as 0% and 100% inhibition. The percent inhibition values of reactions in the presence of compounds were calculated, and plotted against compound concentrations. All data were fitted into a Dose Response One Site model (4 parameter logistic model) as the following:
(A+((B−A)/(1+((x/C)̂D)))),
with A and B as the bottom and top of the curve ([…]), respectively, and C as IC50 and D as Hill Coefficient of the compound.

The record followed here is patent US20090163546A1, “DIACYLGLYCEROL ACYLTRANSFERASE INHIBITORS” (priority 2007, published 2009).

Bounds are passed on as bounds.

A word on the IC50: it is the point on the concentration scale where inhibition reaches its midpoint. For the compound `COc1ccc(Cl)cc1NC(=O)Nc1ccc2c(c1)c(=O)[nH]n2Cc1ccccc1` [Example 1, 1-(1-Benzyl-3-oxo-2,3-dihydro-1H-indazol-5-yl)-3-(5-chloro-2-methoxy-phenyl)-urea], the half-inhibitory concentration (IC50) was at least 100 nM.
`CCOc1ccccc1NC(=O)Nc1ccc2c(c1)c(=O)[nH]n2Cc1ccccc1` [Example 2, 1-(1-Benzyl-3-oxo-2,3-dihydro-1H-indazol-5-yl)-3-(2-ethoxy-phenyl)-urea]: the IC50 is at least 100 nM.
`COc1ccccc1NC(=O)Nc1ccc2c(c1)c(=O)[nH]n2Cc1ccccc1` [Example 3, 1-(1-Benzyl-3-oxo-2,3-dihydro-1H-indazol-5-yl)-3-(2-methoxy-phenyl)-urea]: the half-inhibitory concentration (IC50) is at least 100 nM.
Next, `CCCn1[nH]c(=O)c2cc(NC(=O)Nc3ccccc3OC(F)(F)F)ccc21` [Example 4, 1-(3-Oxo-1-propyl-2,3-dihydro-1H-indazol-5-yl)-3-(2-trifluoromethoxy-phenyl)-urea]: at least 100 nM; `CCCCc1ccc(NC(=O)Nc2ccc3c(c2)c(=O)[nH]n3CCC)cc1` [Example 5, 1-(4-Butyl-phenyl)-3-(3-oxo-1-propyl-2,3-dihydro-1H-indazol-5-yl)-urea]: at least 100 nM; `CCCn1[nH]c(=O)c2cc(NC(=O)Nc3cc(C)ccc3OC)ccc21` [Example 6, 1-(2-Methoxy-5-methyl-phenyl)-3-(3-oxo-1-propyl-2,3-dihydro-1H-indazol-5-yl)-urea]: at least 100 nM.
For `CCCn1[nH]c(=O)c2cc(NC(=O)Nc3cc(Cl)ccc3OC)ccc21` [Example 7, 1-(5-Chloro-2-methoxy-phenyl)-3-(3-oxo-1-propyl-2,3-dihydro-1H-indazol-5-yl)-urea], the IC50 was under 100 nM.
With `CCCn1[nH]c(=O)c2cc(NC(=O)Nc3ccccc3C(C)C)ccc21` [Example 8, 1-(2-Isopropyl-phenyl)-3-(3-oxo-1-propyl-2,3-dihydro-1H-indazol-5-yl)-urea], the IC50 is at least 100 nM.
For the compound `CCCn1[nH]c(=O)c2cc(NC(=O)Nc3ccc(Cl)c(Cl)c3)ccc21` [Example 9, 1-(3,4-Dichloro-phenyl)-3-(3-oxo-1-propyl-2,3-dihydro-1H-indazol-5-yl)-urea], the 50% inhibitory concentration (IC50) is under 100 nM.
For the compound `CCCn1[nH]c(=O)c2cc(NC(=O)Nc3ccccc3CC)ccc21` [Example 10, 1-(2-Ethyl-phenyl)-3-(3-oxo-1-propyl-2,3-dihydro-1H-inidazol-5-yl)-urea], the IC50 was under 100 nM.
For the compound `CCCn1[nH]c(=O)c2cc(NC(=O)Nc3cc(Cl)ccc3Cl)ccc21` [Example 11, 1-(2,5-Dichloro-phenyl)-3-(3-oxo-1-propyl-2,3-dihydro-1H-indazol-5-yl)-urea], the IC50 was at least 100 nM.
For `CCCn1[nH]c(=O)c2cc(NC(=O)Nc3ccc(Cl)cc3Cl)ccc21` [Example 12, 1-(2,4-Dichloro-phenyl)-3-(3-oxo-1-propyl-2,3-dihydro-1H-indazol-5-yl)-urea], the concentration for half-maximal inhibition (IC50) was at least 100 nM.
As for `CCCn1[nH]c(=O)c2cc(NC(=O)Nc3ccc(C(F)(F)F)cc3)ccc21` [Example 13, 1-(3-Oxo-1-propyl-2,3-dihydro-1H-indazol-5-yl)-3-(4-trifluoromethyl-phenyl)-urea], the half-inhibitory concentration (IC50) was at least 100 nM.
For the compound `CCCn1[nH]c(=O)c2cc(NC(=O)Nc3ccccc3)ccc21` [Example 14, 1-(3-Oxo-1-propyl-2,3-dihydro-1H-indazol-5-yl)-3-phenyl-urea], the 50% inhibitory concentration (IC50) is at least 100 nM.
Turning to `CCCn1[nH]c(=O)c2cc(NC(=O)Nc3cccc(Cl)c3)ccc21` [Example 15, 1-(3-Chloro-phenyl)-3-(3-oxo-1-propyl-2,3-dihydro-1H-indazol-5-yl)-urea], the half-maximal inhibitory concentration (IC50) was at least 100 nM.
Turning to `CCCn1[nH]c(=O)c2cc(NC(=O)Nc3cccc(C)c3)ccc21` [Example 16, 1-(3-Oxo-1-propyl-2,3-dihydro-1H-indazol-5-yl)-3-m-tolyl-urea], the half-inhibitory concentration (IC50) is at least 100 nM.
Consider `CCCn1[nH]c(=O)c2cc(NC(=O)Nc3cccc(F)c3)ccc21` [Example 17, 1-(3-Fluoro-phenyl)-3-(3-oxo-1-propyl-2,3-dihydro-1H-indazol-5-yl)-urea], for which the IC50 was at least 100 nM.
Take `CCCn1[nH]c(=O)c2cc(NC(=O)Nc3ccc(F)cc3F)ccc21` [Example 18, 1-(2,4-Difluoro-phenyl)-3-(3-oxo-1-propyl-2,3-dihydro-1H-indazol-5-yl)-urea]: the IC50 is at least 100 nM.
Regarding `CCCn1[nH]c(=O)c2cc(NC(=O)Nc3cccc(Br)c3)ccc21` [Example 19, 1-(3-Bromo-phenyl)-3-(3-oxo-1-propyl-2,3-dihydro-1H-indazol-5-yl)-urea], the IC50 is at least 100 nM.
With `CCCn1[nH]c(=O)c2cc(NC(=O)Nc3ccccc3OC)ccc21` [Example 20, 1-(2-Methoxy-phenyl)-3-(3-oxo-1-propyl-2,3-dihydro-1H-indazol-5-yl)-urea], the IC50 was at least 100 nM.
In the case of `CCCn1[nH]c(=O)c2cc(NC(=O)Nc3ccccc3Cl)ccc21` [Example 21, 1-(2-Chloro-phenyl)-3-(3-oxo-1-propyl-2,3-dihydro-1H-indazol-5-yl)-urea], the IC50 is at least 100 nM.
The figure for `CCCn1[nH]c(=O)c2cc(NC(=O)Nc3ccccc3F)ccc21` [Example 22, 1-(2-Fluoro-phenyl)-3-(3-oxo-1-propyl-2,3-dihydro-1H-indazol-5-yl)-urea] is at least 100 nM; for `COc1c(Cl)cccc1NC(=O)Nc1ccc2c(c1)c(=O)[nH]n2Cc1ccccc1` [Example 23, 1-(1-Benzyl-3-oxo-2,3-dihydro-1H-indazol-5-yl)-3-(3-chloro-2-methoxy-phenyl)-urea] it is at least 100 nM.
`CCOC(=O)Cn1[nH]c(=O)c2cc(NC(=O)Nc3ccccc3CC)ccc21` [Example 24, {5-[3-(2-ethyl-phenyl)-ureido]-3-oxo-2,3-dihydro-indazol-1-yl}-acetic acid ethyl ester]: the IC50 is at least 100 nM.
In the case of `CCc1ccccc1NC(=O)Nc1ccc2c(c1)c(=O)[nH]n2CCOCCOC` [Example 25, 1-(2-ethyl-phenyl)-3-{1-[2-(2-methoxy-ethoxy)-ethyl]-3-oxo-2,3-dihydro-1H-indazol-5-yl}-urea], the IC50 is at least 100 nM.
With `CCc1ccccc1NC(=O)Nc1ccc2c(c1)c(=O)[nH]n2CCOC` [Example 26, 1-(2-ethyl-phenyl)-3-[1-(2-methoxy-ethyl)-3-oxo-2,3-dihydro-1H-indazol-5-yl]-urea], the 50% inhibitory concentration (IC50) is at least 100 nM.
The figure for `CCCn1[nH]c(=O)c2cc(NC(=O)Nc3cccc4cccnc34)ccc21` [Example 27, 1-(3-Oxo-1-propyl-2,3-dihydro-1H-indazol-5-yl)-3-quinolin-8-yl-urea] is under 100 nM; for `CCCn1[nH]c(=O)c2cc(NC(=O)Nc3ccccc3N3CCCCC3)ccc21` [Example 28, 1-(3-Oxo-1-propyl-2,3-dihydro-1H-indazol-5-yl)-3-(2-piperidin-1-yl-phenyl)-urea] it is at least 100 nM; for `CCCn1[nH]c(=O)c2cc(NC(=O)Nc3ccccc3C(C)CC)ccc21` (stereo not shown) [Example 29, 1-(2-sec-Butyl-phenyl)-3-(3-oxo-1-propyl-2,3-dihydro-1H-indazol-5-yl)-urea] it is at least 100 nM.
`O=C(Nc1ccc2c(c1)c(=O)[nH]n2Cc1ccccc1)Nc1ccccc1N1CCCCC1` [Example 30, 1-(1-Benzyl-3-oxo-2,3-dihydro-1H-indazol-5-yl)-3-(2-piperidin-1-yl-phenyl)-urea]: the 50% inhibitory concentration (IC50) was at least 100 nM.
For `C#Cc1cccc(NC(=O)Nc2ccc3c(c2)c(=O)[nH]n3CCC)c1` [Example 31, 1-(3-Ethynyl-phenyl)-3-(3-oxo-1-propyl-2,3-dihydro-1H-indazol-5-yl)-urea], the IC50 was at least 100 nM.
The figure for `CCCn1[nH]c(=O)c2cc(NC(=O)Nc3cccc(C(F)(F)F)c3)ccc21` [Example 32, 1-(3-Oxo-1-propyl-2,3-dihydro-1H-indazol-5-yl)-3-(3-trifluoromethyl-phenyl)-urea] is at least 100 nM.
Consider `CC(C)Oc1cccc(NC(=O)Nc2ccc3c(c2)c(=O)[nH]n3Cc2ccccc2)c1` [Example 33, 1-(1-Benzyl-3-oxo-2,3-dihydro-1H-indazol-5-yl)-3-(3-isopropoxy-phenyl)-urea], for which the 50% inhibitory concentration (IC50) was at least 100 nM.
The figure for `O=C(Nc1cccc(C(F)(F)F)c1)Nc1ccc2c(c1)c(=O)[nH]n2Cc1ccccc1` [Example 34, 1-(1-Benzyl-3-oxo-2,3-dihydro-1H-indazol-5-yl)-3-(3-trifluoromethyl-phenyl)-urea] is at least 100 nM.
